In ChEMBL document CHEMBL1201862, “PubChem BioAssay data set” (2004):
Where a name gives a salt, the structure may show the parent alone. The source made the active and inactive calls.

Columns and labels:
H4 = experiment: Luminescence Cell-Based Dose Response HTS to Identify Activators of 5'UTR Stem-Loop Driven Prion Protein mRNA Translation in H4 Neuroglioblastoma Cells. [Related pubchem assays: 1829 (Project Summary), 1814 (Primary HTS)]; type: functional; details: Homo sapiens
[1] = Luminescence Cell-Based Dose Response HTS to Identify Activators of Luciferase Translation or Activity in H4 […] Cells. [Related pubchem assays: 1829 (Project Summary), 1814 (Primary HTS)]; type: functional
[2] = target: T1, Sentrin-specific protease 8 (Homo sapiens, UniProt Q96LD8); type: functional
T1 sequence (Q96LD8 whole entry): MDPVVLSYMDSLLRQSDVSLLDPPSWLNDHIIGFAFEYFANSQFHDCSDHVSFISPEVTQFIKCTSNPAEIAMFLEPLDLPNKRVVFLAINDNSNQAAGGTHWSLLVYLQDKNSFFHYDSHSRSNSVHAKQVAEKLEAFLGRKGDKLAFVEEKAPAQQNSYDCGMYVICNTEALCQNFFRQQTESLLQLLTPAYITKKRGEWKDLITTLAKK

[3] = target: T2, Aryl hydrocarbon receptor (Homo sapiens, UniProt P35869); experiment: Luminescence-based cell-based high throughput dose response assay for activators of the Aryl Hydrocarbon Receptor (AHR). [Related pubchem assays: 2796 (Primary screen (AHR activators in singlicate)), 2845 (Confirmation screen (AHR activators in triplicate)), 434939 (Counterscreen (PXR activators in triplicate)), 2804 (Summary (AHR activators))]; type: ADME
T2 sequence (P35869 whole entry): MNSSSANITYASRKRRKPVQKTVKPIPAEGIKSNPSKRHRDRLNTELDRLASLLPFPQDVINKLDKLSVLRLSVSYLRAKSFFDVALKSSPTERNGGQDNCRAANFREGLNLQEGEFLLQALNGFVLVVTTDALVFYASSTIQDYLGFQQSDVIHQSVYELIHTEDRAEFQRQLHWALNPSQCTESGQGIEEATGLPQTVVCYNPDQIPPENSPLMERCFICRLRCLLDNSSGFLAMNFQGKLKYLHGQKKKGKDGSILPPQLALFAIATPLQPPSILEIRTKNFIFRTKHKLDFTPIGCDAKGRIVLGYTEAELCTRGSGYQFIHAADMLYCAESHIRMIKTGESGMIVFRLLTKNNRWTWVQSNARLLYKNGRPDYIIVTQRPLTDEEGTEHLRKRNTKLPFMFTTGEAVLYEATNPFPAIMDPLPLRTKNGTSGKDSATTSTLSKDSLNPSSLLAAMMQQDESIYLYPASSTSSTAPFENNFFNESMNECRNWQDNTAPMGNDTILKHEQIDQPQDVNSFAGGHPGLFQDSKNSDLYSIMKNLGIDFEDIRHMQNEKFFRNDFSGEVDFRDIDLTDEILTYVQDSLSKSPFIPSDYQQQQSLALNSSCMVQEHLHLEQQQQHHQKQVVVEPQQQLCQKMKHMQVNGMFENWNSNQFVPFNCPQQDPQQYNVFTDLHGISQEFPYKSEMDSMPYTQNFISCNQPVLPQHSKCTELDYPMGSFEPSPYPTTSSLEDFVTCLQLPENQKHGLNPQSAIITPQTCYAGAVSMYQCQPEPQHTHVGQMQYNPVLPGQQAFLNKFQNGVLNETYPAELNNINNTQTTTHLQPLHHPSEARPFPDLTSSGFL

[4] = target: T1, Sentrin-specific protease 8; type: functional; remark: listed apart in the source
[5] = Luminescence Cell-Based Dose Confirmation HTS to Identify Activators of 5'UTR Stem-Loop Driven Alpha-Synuclein mRNA Translation in H4 Neuroglioblastoma Cells. [Related pubchem assays: 1829 (Project Summary), 1814 (Primary HTS)]; type: functional
[6] = THP-1 cell cytotoxicity, dose response, cytotoxicity control for non-replicating M. tuberculosis project (AID 489025); type: functional
Protein RecA = target: T3, Protein RecA (Mycobacterium tuberculosis, UniProt P9WHJ3); experiment: Fluorescence Cell-Free Homogeneous Dose Retest to Identify Inhibitors of RecA-Intein Splicing Activity. [Related pubchem assays (depositor defined):AID2097, AID2223, AID489010, AID492950]; type: functional
T3 sequence (P9WHJ3 whole entry): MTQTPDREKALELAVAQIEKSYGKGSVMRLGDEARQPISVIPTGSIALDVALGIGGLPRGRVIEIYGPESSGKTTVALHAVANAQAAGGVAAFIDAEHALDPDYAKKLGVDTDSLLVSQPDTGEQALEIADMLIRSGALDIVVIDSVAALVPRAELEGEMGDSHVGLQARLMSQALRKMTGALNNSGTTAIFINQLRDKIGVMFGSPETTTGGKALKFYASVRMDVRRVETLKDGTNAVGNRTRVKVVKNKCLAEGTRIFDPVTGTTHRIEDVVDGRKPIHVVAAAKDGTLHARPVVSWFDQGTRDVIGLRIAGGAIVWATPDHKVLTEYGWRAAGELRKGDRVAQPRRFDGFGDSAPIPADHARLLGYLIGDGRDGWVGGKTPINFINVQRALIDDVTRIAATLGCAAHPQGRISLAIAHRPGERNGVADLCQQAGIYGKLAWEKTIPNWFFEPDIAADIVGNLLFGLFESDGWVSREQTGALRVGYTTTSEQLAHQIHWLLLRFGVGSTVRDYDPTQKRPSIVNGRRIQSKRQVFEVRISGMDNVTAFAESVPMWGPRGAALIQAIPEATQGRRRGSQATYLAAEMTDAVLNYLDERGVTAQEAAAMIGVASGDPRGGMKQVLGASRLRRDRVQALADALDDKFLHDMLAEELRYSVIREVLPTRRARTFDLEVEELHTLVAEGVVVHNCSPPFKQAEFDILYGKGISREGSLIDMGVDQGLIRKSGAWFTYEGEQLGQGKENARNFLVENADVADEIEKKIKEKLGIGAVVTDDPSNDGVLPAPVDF

[7] = Vero E6 cell cytotoxicity, dose response, cytotoxicity control for non-replicating M. tuberculosis project, secondary assay (AID 492998); type: functional, VeroE6; details: Vero C1008
[8] = target: T4, Replicative DNA helicase DnaB (Mycobacterium tuberculosis, UniProt P9WMR3); experiment: DnaB intein splicing inhibitors, dose response, biochemical, cell-free fluorescence (AID 449749); type: functional
T4 sequence (P9WMR3 whole entry): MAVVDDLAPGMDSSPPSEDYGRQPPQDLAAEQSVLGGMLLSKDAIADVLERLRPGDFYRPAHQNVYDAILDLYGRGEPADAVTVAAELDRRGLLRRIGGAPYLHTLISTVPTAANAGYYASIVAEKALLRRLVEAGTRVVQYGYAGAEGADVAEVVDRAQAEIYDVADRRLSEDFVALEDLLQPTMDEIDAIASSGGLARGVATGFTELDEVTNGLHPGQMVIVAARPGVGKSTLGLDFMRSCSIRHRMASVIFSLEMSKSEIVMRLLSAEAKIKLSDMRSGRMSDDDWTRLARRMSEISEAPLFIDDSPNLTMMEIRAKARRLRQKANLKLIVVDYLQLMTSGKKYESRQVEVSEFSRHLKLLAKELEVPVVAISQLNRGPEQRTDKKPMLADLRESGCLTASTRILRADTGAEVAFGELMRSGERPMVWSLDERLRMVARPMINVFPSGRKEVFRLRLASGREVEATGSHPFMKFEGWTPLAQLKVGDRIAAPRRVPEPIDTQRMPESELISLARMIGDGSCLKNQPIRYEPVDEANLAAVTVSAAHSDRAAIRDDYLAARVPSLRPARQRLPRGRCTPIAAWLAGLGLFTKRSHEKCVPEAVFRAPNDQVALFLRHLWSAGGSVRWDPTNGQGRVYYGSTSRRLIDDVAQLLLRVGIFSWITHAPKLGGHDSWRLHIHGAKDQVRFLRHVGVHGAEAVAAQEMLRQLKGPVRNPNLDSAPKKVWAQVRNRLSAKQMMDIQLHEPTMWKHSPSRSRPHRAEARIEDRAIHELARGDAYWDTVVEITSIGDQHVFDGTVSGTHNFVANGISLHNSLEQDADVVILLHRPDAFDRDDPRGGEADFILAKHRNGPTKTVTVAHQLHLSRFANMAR

[9] = reduction of Shn3 3'UTR-driven luciferase in osteoblasts – cell-based, Clone20 osteoblasts, firefly luciferase, cherry-picked, dose response (AID 624132); type: functional;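 note: firefly luciferase luminescence from reporter carrying the Shn3 3'UTR in osteoblasts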
HEK293 [10] = experiment: cells; details: Homo sapiens
INS1 = experiment: INS-1E survival protection against cytokine death – cell-based, luminescence, retest, dose response (AID 449756); type: functional; details: Rattus norvegicus;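 note: cell death triggered by IL-1 beta plus TNF-alpha plus IFN-gamma mixture; protective hits raise ATP signal compared with cytokine alone wells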
cells = type: functional
[11] = non-specific 3'UTR reporter inhibition in Clone20-Shn3RL – cell-based, Renilla luciferase, cherry-picked, counter-screen for Shn3 inhibitor project, dose response (AID 624133); type: functional
HEK293 [12] = experiment: cells; details: Homo sapiens; remark: listed apart in the source
[13] = target: T5, Sphingosine 1-phosphate receptor 4 (Homo sapiens, UniProt O95977); experiment: Fluorescence dose response cell-based high throughput screening assay for antagonists of the Sphingosine 1-Phosphate Receptor 4 (S1P4). [Related pubchem assays: 1524 (Confirmation in triplicates.), 1510 (Primary screen.)]; type: functional
T5 sequence (O95977 whole entry): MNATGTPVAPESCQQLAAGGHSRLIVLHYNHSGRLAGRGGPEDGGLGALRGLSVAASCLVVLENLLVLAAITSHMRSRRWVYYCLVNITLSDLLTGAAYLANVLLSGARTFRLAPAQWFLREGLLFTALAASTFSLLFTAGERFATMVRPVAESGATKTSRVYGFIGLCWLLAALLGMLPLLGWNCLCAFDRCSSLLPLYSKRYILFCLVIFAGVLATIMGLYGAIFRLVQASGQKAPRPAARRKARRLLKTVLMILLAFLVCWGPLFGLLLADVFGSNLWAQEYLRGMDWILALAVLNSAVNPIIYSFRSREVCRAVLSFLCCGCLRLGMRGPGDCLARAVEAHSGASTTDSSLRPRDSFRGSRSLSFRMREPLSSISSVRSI

[14] = target: Sphingosine 1-phosphate receptor 1 (Homo sapiens, UniProt P21453); type: functional;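 note: Tango beta-arrestin reporter U2OS cells stimulated with S1P near its EC80; inhibitor potency meaning antagonism of receptor activation by the natural agonist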
[15] = loss of viability in HepG2 cells – cell-based, CellTiter-Glo, cherry-picked, cytotoxicity control for Shn3 inhibitor project, dose response (AID 624134); type: functional
[16] = Fluorescence-based cell-based high throughput dose response assay for inhibitors of the interaction of nucleotide-binding oligomerization domain containing 2 (NOD2) and the receptor-interacting serine-threonine kinase 2 (RIPK2).; type: functional; details: Homo sapiens
Beta Lactamase = Beta Lactamase (Pseudomonas aeruginosa, UniProt Q932Y6); experiment: BLA reporter interference, concentration series – BLA reporter cells, FRET fluorescence, artefact control for NOD2-RIPK2 interaction inhibitor project, dose response (AID 651552); type: functional, cell-based
[17] = HepG2 cell cytotoxicity, dose response, cytotoxicity control for non-replicating M. tuberculosis project (AID 489018); type: functional; details: Mycobacterium tuberculosis
[18] = target: Arf-GAP with SH3 domain, ANK repeat and PH domain-containing protein 1 (Homo sapiens, UniProt Q9ULH1); type: functional;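 note: biochemical fluorescence polarization dose–response screen measuring inhibition of ASAP1; ASAP1 GAP domain stimulating GTP hydrolysis by truncated human ARF1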
H9c2 = experiment: cells; type: functional, cell-based; details: Rattus norvegicus, H9c2, Myocardium;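 note: confirmatory concentration-response retest of ultra-high-throughput screening hits for modulation of myocardial damage; cell death induced by hydrogen peroxide oxidative stress; compound pretreatment for 60 min then peroxide exposure for 2 h; potency is for protecting the cells against peroxide damage rather than for killing them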
Leucine aminopeptidase = target: T6, Leucine aminopeptidase (Plasmodium falciparum 3D7, UniProt Q8IL11); experiment: P. falciparum M17LAP inhibitors, primary screen, biochemical, fluorogenic H-Leu-NHMec substrate, 1536-well (AID 1619); type: functional
T6 sequence (Q8IL11 whole entry): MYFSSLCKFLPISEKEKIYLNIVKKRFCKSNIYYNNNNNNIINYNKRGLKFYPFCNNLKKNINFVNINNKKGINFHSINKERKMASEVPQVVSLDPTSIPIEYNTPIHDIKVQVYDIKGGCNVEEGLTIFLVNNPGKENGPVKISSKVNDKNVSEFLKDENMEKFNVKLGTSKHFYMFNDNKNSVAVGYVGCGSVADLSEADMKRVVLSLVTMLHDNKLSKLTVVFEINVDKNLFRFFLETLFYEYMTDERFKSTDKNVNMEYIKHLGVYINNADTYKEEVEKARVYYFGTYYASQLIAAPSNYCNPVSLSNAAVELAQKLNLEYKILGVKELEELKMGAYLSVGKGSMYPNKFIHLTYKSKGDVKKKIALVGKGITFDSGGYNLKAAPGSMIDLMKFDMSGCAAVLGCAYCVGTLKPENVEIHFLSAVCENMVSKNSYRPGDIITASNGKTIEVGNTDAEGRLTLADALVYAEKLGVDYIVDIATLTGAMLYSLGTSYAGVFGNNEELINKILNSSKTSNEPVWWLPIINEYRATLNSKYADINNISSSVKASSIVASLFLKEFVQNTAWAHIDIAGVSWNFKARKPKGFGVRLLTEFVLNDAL

[19] = Counterscreen for inhibitors of Trypanosoma brucei methionyl tRNA synthetase (MetRS): Luminescence-based cell-based high throughput dose response assay to identify compounds that are cytotoxic to Jurkat human T lymphocyte cells.; type: functional
Mu-type opioid receptor = Mu-type opioid receptor (Homo sapiens, UniProt P35372); type: functional, cell-based;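 note: U2OS cells with beta-arrestin recruitment to OPRM1 by beta-gal complementation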
Chain of Mu-type opioid receptor (P35372 whole entry): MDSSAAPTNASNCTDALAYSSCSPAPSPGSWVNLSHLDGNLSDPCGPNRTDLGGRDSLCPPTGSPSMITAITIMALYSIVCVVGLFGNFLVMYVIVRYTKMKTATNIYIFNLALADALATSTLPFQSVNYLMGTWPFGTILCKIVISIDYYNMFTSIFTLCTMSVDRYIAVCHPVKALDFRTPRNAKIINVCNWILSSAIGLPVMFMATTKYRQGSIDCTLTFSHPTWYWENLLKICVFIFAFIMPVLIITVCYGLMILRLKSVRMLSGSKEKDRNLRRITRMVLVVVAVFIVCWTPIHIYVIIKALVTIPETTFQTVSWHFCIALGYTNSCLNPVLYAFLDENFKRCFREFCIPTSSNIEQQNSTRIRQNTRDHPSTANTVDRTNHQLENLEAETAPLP

Chain of Arf-GAP with SH3 domain, ANK repeat and PH domain-containing protein 1 (Q9ULH1 whole entry, the tested form may be a part): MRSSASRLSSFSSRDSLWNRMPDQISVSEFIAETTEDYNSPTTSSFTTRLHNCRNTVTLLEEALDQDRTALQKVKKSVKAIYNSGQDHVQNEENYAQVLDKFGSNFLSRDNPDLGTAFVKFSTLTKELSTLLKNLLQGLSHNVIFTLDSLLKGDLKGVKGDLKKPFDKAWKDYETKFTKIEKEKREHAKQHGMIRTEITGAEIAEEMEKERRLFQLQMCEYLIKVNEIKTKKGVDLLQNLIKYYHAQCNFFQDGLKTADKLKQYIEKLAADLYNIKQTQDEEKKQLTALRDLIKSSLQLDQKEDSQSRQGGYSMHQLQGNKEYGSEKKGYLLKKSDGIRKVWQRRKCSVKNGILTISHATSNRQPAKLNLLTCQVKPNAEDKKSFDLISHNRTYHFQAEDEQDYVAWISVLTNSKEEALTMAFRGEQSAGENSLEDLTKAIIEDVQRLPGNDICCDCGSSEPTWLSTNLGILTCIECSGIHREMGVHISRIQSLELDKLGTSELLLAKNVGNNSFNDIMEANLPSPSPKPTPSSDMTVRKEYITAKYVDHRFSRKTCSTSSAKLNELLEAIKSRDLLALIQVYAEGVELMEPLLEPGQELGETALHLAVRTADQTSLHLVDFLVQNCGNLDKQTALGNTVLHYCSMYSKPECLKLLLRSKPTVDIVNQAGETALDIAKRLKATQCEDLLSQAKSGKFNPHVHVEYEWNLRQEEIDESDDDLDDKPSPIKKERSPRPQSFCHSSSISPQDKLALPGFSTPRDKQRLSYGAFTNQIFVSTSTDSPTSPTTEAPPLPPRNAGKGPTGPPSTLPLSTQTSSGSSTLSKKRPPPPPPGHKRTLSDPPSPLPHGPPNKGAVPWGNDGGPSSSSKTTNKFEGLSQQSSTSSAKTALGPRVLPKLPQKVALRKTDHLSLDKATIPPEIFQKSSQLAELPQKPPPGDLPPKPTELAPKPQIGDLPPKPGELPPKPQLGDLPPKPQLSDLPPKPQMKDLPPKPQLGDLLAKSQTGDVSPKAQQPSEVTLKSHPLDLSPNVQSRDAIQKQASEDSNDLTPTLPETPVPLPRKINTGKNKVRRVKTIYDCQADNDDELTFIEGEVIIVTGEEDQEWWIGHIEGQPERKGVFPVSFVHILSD
Chain of Sphingosine 1-phosphate receptor 1 (P21453 whole entry): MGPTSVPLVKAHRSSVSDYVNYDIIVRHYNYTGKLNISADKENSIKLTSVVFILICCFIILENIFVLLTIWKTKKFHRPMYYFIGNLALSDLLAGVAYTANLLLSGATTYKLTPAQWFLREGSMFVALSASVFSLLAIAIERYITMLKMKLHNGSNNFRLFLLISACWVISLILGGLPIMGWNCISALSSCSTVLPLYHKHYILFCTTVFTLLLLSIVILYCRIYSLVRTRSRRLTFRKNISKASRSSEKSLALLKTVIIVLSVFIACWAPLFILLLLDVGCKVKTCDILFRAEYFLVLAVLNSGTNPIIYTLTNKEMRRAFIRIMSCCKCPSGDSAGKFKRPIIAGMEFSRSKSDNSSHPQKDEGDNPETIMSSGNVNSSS
Chain of Beta Lactamase (Q932Y6 whole entry): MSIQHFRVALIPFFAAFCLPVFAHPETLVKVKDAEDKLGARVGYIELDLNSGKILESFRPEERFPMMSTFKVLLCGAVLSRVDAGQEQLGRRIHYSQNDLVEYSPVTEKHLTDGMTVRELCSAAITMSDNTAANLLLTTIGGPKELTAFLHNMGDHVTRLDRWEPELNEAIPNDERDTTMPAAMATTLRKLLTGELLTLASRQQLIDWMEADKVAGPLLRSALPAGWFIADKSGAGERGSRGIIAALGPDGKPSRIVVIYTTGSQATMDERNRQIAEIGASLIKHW

With `O=C1c2ccccc2-c2nc3ccccc3nc21` the EC50 (H4) was > 120 µM (not active), the EC50 [1] was 42.2 µM (active) and the IC50 [2] was 5.17 µM (active). For the same compound, the EC50 [3] was 1.22 µM (active), the IC50 [4] was 8.84 µM (active) and the EC50 [5] was 0.307 µM (active).

For `CC1=NNC(=O)/C1=C\c1cn(-c2ccccc2)nc1-c1ccccc1`, the CC50 [6] was 6.16 µM (active), the EC50 (Protein RecA) was 0.978 µM (active) and the CC50 [7] was 10.1 µM (active). The AC50 [8] was 1.92 µM (active), the AC50 [9] was 8.42 µM (active) and the EC50 (HEK293 [10]) was > 59.7 µM (inactive). For the same compound, the AC50 (INS1) was 7.76 µM (active), the IC50 (cells) was 20.6 µM (active) and the AC50 [11] was 9.3 µM (active). For the same compound, the EC50 (HEK293 [12]) was > 59.7 µM (inactive), the IC50 [13] was 2 µM (active) and the IC50 [14] was 6.83 µM (active). For the same compound, the AC50 [15] was 8.9 µM (active), the IC50 [16] was 4.43 µM (active) and the IC50 (Beta Lactamase) was 49.8 µM (inactive). For the same compound, the CC50 [17] was 13 µM (active).

For `c1ccc(-c2cc(-c3nnc4sc(-c5ccccn5)nn34)[nH]n2)cc1`, the IC50 [18] was 165 µM (inactive) and the IC50 (H9c2) was > 79 µM (inactive).

For `Cc1ccc(NC(=O)CSc2ncccc2C(=O)Oc2cccc([N+](=O)[O-])c2)cc1Cl`, the IC50 (Leucine aminopeptidase) was 32 µM (active) and the IC50 [18] was 45.7 µM (inactive).

With `N#Cc1ccccc1CSc1nc2cc(Br)c[nH]c-2n1` the IC50 [19] was 83.3 µM (inactive).

For `CC(C)[C@@]1(NC(=O)[C@@H]2C[C@@H]3c4cccc5[nH]cc(c45)C[C@H]3N(C)C2)O[C@@]2(O)[C@@H]3CCCN3C(=O)[C@H](Cc3ccccc3)N2C1=O` [DIHYDROERGOCRISTINE MESYLATE], the EC50 (Mu-type opioid receptor) was 92.5 µM (inactive).
